Data taken from publication PMC6440977, “Nucleoside analogue activators of cyclic AMP-independent protein kinase A of Trypanosoma” (Nature Communications, 2019).
Several values for one entry are separate records, joined by “and”; a condition that tells them apart may be missing. Equal values may be shown once. Read-outs that look alike come from different tables or passages of the source.

Tests used:
metacaspase 4 (MCA4) = format: cell-based, Trypanosoma brucei; settings: for MCA4 counts / MCA4 normalized / MCA4 fold change: 4 µM; for MCA4 normalized: normalized to PFR-A/C; for MCA4 fold change: untreated WT set to 1
PKAR = experiment: Western blot quantification of protein abundance, PKAR; format: cell-based, Trypanosoma brucei; settings: WT cells, normalized to PFR, WT 0h set to 1, individual replicates
Source text: Replicate 1 Replicate 2 Replicate 3 PKAR
WT pkar KOWT pkar KO pkar WTKO1.0PKAC1/2 […]
(a) Samples prepared for quantitative proteome analysis: PKAR and PKAC1/2 protein levels (top Western panels, red) and RXXS*/T* phos-phorylation (bottom Western panels, phospho-specific anti-RXXS*/T*, red) are quantified as summarized in the column charts next to the Western blots. The scanned values were normalized to the loading control (PFR-A/C, green) and the untreated wild type sample was set to 1. Wild type (WT) and ∆pkar/∆pkar (pkar KO) cells were treated with 7-CN-7-C-Ino (Ino) for the indicated time (PKAR/PKAC1 expression) or for 10 min (RXXS*/T* phosphorylation). Error bars represent SD of three independent experiments.
>1.5 fold (vertical dashed lines) with a p-value of <0.05 (Welch’s t-test, two-sided) are labeled as blue dots with their TriTrypDB IDs.
Source data are provided as a Source Data file.
(also on this page, place not known: WT -Log10 WT6 -Log KO6 2 4 KO -1 / KO0 -Log10 p-value KO12 / KO0 2 4 10 WT (b) p-value p-value 2 4 -Log10 p-value / WT0 -1 0 1 WT12 / WT0 Fold expression 0 0 WT KO 1.0 PKAC1/2 WT pkar KO + - 0 1 2 4 Fold RXXS/T phosphorylation 11) […]
For Western blot analysis14, the primary antibodies anti-PKAR7 (1:500), anti - […]
(ThermoFisher, catalogue number A27042, 1:5000) were used for detection using the OdysseyTM IR fluorescence scanning system. […]

PKAC1/2 = format: cell-based, Trypanosoma brucei; settings: for PKAC1/2 Western quantification: normalized to PFR, WT 0h set to 1, individual replicates; for PKAC1/2 counts / PKAC1/2 normalized / PKAC1/2 fold change: 4 µM; for PKAC1/2 normalized: normalized to PFR-A/C; for PKAC1/2 fold change: untreated WT set to 1;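 as to all read-outs here: trypanosoma brucei cells, PKAC1/2 signal from western blots read on an infrared fluorescence scanning system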
T. brucei BSF cells (WT) = experiment: Alamar blue cell viability assay, wild type;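 also: trypanosomes seeded at 5×10^3 per ml and grown 72 h with compound, then resazurin 0.5 mM added for 4 h as the viability read-out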

Structure (SMILES): N#Cc1cn([C@@H]2O[C@H](CO)[C@@H](O)[C@H]2O)c2ncnc(O)c12 [7-CN-7-C-Ino, 7-Cyano-7-deazainosine]
- Western quantification, KO + Ino (metacaspase 4 (MCA4); KO cells + Ino, normalized to PFR, WT set to 1, individual replicates, protein not given): 0.3769 and 0.643 and 0.8892
- Western quantification, WT + Ino (metacaspase 4 (MCA4); WT cells + Ino, normalized to PFR, WT set to 1, individual replicates, protein not given): 3.707 and 4.121 and 2.558
- MCA4 counts (metacaspase 4 (MCA4); WT, 12 h): 9.21
- MCA4 normalized (metacaspase 4 (MCA4); WT, 12 h): 5.616
- MCA4 fold change (metacaspase 4 (MCA4); WT, 12 h): 0.3804
- MCA4 counts (metacaspase 4 (MCA4); WT, 18 h): 7.41
- MCA4 normalized (metacaspase 4 (MCA4); WT, 18 h): 5.37
- MCA4 fold change (metacaspase 4 (MCA4); WT, 18 h): 0.3637
- MCA4 counts (metacaspase 4 (MCA4); WT, 24 h): 7.18
- MCA4 normalized (metacaspase 4 (MCA4); WT, 24 h): 4.603
- MCA4 fold change (metacaspase 4 (MCA4); WT, 24 h): 0.3117
- MCA4 counts (metacaspase 4 (MCA4); pkar KO, 12 h): 8.83
- MCA4 normalized (metacaspase 4 (MCA4); pkar KO, 12 h): 0.3995
- MCA4 fold change (metacaspase 4 (MCA4); pkar KO, 12 h): 0.8235
- MCA4 counts (metacaspase 4 (MCA4); pkar KO, 18 h): 9.5
- MCA4 normalized (metacaspase 4 (MCA4); pkar KO, 18 h): 0.5278
- MCA4 fold change (metacaspase 4 (MCA4); pkar KO, 18 h): 1.088
- MCA4 counts (metacaspase 4 (MCA4); pkar KO, 24 h): 10.63
- MCA4 normalized (metacaspase 4 (MCA4); pkar KO, 24 h): 0.3562
- MCA4 fold change (metacaspase 4 (MCA4); pkar KO, 24 h): 0.7342
- MCA4 abundance, in words (metacaspase 4 (MCA4); wild type, 12 h post induction): decreased
- PKAR Western quantification (PKAR; 6 h treatment): 0.8653 and 0.7031 and 1.455
- PKAR Western quantification (PKAR; 12 h treatment): 0.7135 and 0.7185 and 1.457
- PKAC1/2 Western quantification (PKAC1/2; R KO cells, 6 h treatment): 0.4425 and 0.1597 and 0.1981
- PKAC1/2 Western quantification (PKAC1/2; R KO cells, 12 h treatment): 0.2802 and 0.2063 and 0.2365
- PKAC1/2 Western quantification (PKAC1/2; WT cells, 6 h treatment): 0.4685 and 0.4579 and 0.5439
- PKAC1/2 Western quantification (PKAC1/2; WT cells, 12 h treatment): 0.3997 and 0.2606 and 0.4376
- PKAC1/2 counts (PKAC1/2; WT, 12 h): 99.53
- PKAC1/2 normalized (PKAC1/2; WT, 12 h): 60.689
- PKAC1/2 fold change (PKAC1/2; WT, 12 h): 0.4385
- PKAC1/2 counts (PKAC1/2; WT, 18 h): 76
- PKAC1/2 normalized (PKAC1/2; WT, 18 h): 55.0725
- PKAC1/2 fold change (PKAC1/2; WT, 18 h): 0.3979
- PKAC1/2 counts (PKAC1/2; WT, 24 h): 86.74
- PKAC1/2 normalized (PKAC1/2; WT, 24 h): 55.6026
- PKAC1/2 fold change (PKAC1/2; WT, 24 h): 0.4018
- PKAC1/2 counts (PKAC1/2; pkar KO, 12 h): 70.66
- PKAC1/2 normalized (PKAC1/2; pkar KO, 12 h): 3.197
- PKAC1/2 fold change (PKAC1/2; pkar KO, 12 h): 0.1969
- PKAC1/2 counts (PKAC1/2; pkar KO, 18 h): 69.65
- PKAC1/2 normalized (PKAC1/2; pkar KO, 18 h): 3.869
- PKAC1/2 fold change (PKAC1/2; pkar KO, 18 h): 0.2383
- PKAC1/2 counts (PKAC1/2; pkar KO, 24 h): 95.11
- PKAC1/2 normalized (PKAC1/2; pkar KO, 24 h): 3.187
- PKAC1/2 fold change (PKAC1/2; pkar KO, 24 h): 0.1963
- increase of EC50 for cell viability compared to Toyo (T. brucei BSF cells (WT)): > 170 fold
- IC50 (T. brucei BSF cells (WT); Trypanosoma brucei, 72 h, read-out: IC50 growth WT): ≥ 125 µM
- EC50 (T. brucei BSF cells (WT); Trypanosoma brucei, read-out: EC50, Alamar blue cell viability assay, WT, individual replicate results, wild type cells, fit ambiguous, bound given in µM): > 125 µM
- effect on growth or viability, in words (T. brucei BSF cells (WT); continuous treatment): does not produce these PKA-independent effects
